Tests used:
[1] = Lipophilicity, log D of the compound; assay type: physicochemical; conditions: octanol/water
[2] = Permeability in artificial membrane assessed as diffusion rate by PAMPA assay; assay type: ADME; conditions: read-out: permeability

Structure (SMILES) | logD [1] | Papp [2]
CN(CCC#N)c1cnc(C(=O)NCC(C)(C)c2ccccc2)cn1 | 2.9 | 
CC(C)(CNC(=O)c1cnc(N2CCCCC2)cn1)c1ccccc1 | 4.5 | 
CC(C)(CNC(=O)c1cnc(N2CCC(CO)CC2)cn1)c1ccccc1 | 3.5 | 
O=C(NCC1CC1)c1cncc(NCCc2cccc(O)c2)n1 | 3.2 | 
CCCCN(C)c1cncc(C(=O)NC2CCCCCC2)n1 | 3.8 | 
O=C(NCC1CC1)c1cncc(N2CCCN(Cc3ccccc3)CC2)n1 | 3 | 
O=C(NC1CCCCCC1)c1cnc(N2CCCCC2)cn1 | 3.9 | 
C[C@H]1CC[C@H](NC(=O)c2cnc(N3CCC(CO)CC3)cn2)CC1 | 3.3 | 25.5 ×10⁻⁶ cm/s
C[C@H]1CC[C@H](NC(=O)c2cnc(N3CCCCC3)cn2)CC1 | 4.4 | 
CC(C)(CNC(=O)c1cncc(N2CCCCC2)n1)c1ccccc1 | 4.4 | 
CCN(C)c1cncc(C(=O)NC2Cc3ccccc3C2)n1 | 3.6 | 
CC(CN(C)C)N(C)c1cnc(C(=O)NCC(C)(C)c2ccccc2)cn1 (stereo not drawn) | 2 | 

The remaining lines, values ahead:

logD [1] | Papp [2] | Structure (SMILES)
2.6 |  | CC(C)(CNC(=O)c1cncc(-c2ccccc2)n1)c1ccccc1
3.4 |  | CC(C)(CNC(=O)c1cnc(-c2ccccc2)cn1)c1ccccc1
2.7 |  | CN(CCO)c1cncc(C(=O)NCC(C)(C)c2ccccc2)n1
3.6 |  | CC(C)(CNC(=O)c1cncc(N[C@@H](CO)c2ccccc2)n1)c1ccccc1
4 |  | CC(C)(CNC(=O)c1cnc2ccccc2n1)c1ccccc1

From ChEMBL document CHEMBL1138393, “Structure-activity relationships of novel non-competitive mGluR1 antagonists: a potential treatment for chronic pain” (Bioorg Med Chem Lett, 2007)
